Experimental data from US20170280720A1, “ARGININE […] INHIBITORS AND USES THEREOF” (EPIZYME, INC., priority 2014, published 2017).

What was measured:
PRMT5 = PRMT5 (Homo sapiens, UniProt O14744); assay: PRMT5 IC50 (Table 2; no method described); format: biochemical; settings: read-out: PRMT5_ IC50
[1] = system: asymmetric di-methyl PABP1 in RKO cells; assay: In Cell Western (ICW) for asymmetric di-methyl PABP1 and DNA content in RKO cells; format: cell-based; settings: Homo sapiens, RKO, In Cell Western
How it was run: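 RKO cells treated with compound for 48 h at 37 °C, then fixed, methanol-permeabilized and stained for asymmetric di-methyl PABP1 (800 nm) with DRAQ5 DNA stain (700 nm). Signal ratio normalized to DMSO and 20 μM reference-compound controls. IC50 from nine 3-fold dilutions in triplicate.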

Chain of PRMT5 (O14744 whole entry, species assumed): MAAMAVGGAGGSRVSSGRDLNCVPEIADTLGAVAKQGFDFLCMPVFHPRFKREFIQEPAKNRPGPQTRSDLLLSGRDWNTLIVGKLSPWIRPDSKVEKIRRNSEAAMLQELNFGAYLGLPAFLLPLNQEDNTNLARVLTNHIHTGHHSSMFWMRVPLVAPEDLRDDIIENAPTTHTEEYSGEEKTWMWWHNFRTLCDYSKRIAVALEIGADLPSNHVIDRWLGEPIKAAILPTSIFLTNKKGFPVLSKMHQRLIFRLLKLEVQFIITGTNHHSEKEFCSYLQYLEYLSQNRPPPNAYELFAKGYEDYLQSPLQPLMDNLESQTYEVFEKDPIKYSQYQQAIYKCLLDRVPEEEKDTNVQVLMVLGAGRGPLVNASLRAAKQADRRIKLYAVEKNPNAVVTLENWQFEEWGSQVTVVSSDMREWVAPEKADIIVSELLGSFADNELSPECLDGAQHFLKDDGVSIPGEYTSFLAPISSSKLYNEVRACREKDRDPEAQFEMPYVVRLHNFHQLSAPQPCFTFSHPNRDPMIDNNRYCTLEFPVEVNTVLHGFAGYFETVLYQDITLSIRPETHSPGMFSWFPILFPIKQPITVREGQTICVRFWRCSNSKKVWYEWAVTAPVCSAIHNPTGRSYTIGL
Chain of PRMT5 (Q9BQA1 whole entry partner, species assumed): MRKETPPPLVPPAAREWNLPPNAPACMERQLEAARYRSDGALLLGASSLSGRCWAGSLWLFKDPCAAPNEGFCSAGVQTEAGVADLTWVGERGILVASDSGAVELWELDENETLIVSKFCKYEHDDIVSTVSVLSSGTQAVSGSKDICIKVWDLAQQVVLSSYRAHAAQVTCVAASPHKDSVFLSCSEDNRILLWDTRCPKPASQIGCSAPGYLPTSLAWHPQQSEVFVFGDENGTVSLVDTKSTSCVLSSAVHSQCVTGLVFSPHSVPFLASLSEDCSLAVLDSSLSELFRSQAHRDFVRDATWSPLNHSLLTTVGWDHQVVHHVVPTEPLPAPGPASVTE

| IC50 (PRMT5) [µM] | IC50 [1] [µM] | SMILES |
| --- | --- | --- |
| 50 |  | CNCCN(C)Cc1cccc(-c2cc(C(=O)N[C@@H](C)c3ccccc3)c3cnn(C(C)C)c3n2)c1 [Compound 44] |
| 50 |  | CNCCN(C)Cc1cccc(-c2ccc3c(c2)ncn3C(C)C)c1 [Compound 36] |
|  | 20 | CC(C)n1ncc2c(C(=O)N3CCCCC3)cc(-c3cccc(CNCCN)c3)nc21 [Compound 153] |
|  | 5.14 | CC(C)n1ncc2c(C(=O)NCC3CCOCC3)cc(-c3cccc(CN(C)CCNC4CC4)c3)nc21 [Compound 167] |
|  | 13.3 | CNCCN(C)Cc1cccc(-c2cc(NS(C)(=O)=O)c3cnn(C(C)C)c3n2)c1 [Compound 169] |
| 0.371 |  | Cc1ccc(-n2cnc3cc(-c4ccc(CNCCN)cc4)ccc32)cc1 [Compound 131] |
|  | 9.62 | CNCCN(C)Cc1cccc(-c2cc(C(=O)NCc3cnn(C)c3C)c3cnn(C(C)C)c3n2)c1 [Compound 137] |
|  | 4.12 | CNCCN(C)Cc1cccc(-c2cc(C(=O)NCc3ccccc3F)c3cnn(C(C)C)c3n2)c1 [Compound 38] |
|  | 5.21 | CNCCN(C)Cc1cccc(-c2cc(C(=O)NC3CCOCC3)c3cnn(C4CCC4)c3n2)c1 [Compound 29] |
|  | 20 | CC(C)n1ncc2c(C(=O)N3CCCCC3)cc(-c3cccc(CN(C)CCN)c3)nc21 [Compound 43] |
| 0.338 |  | NCCNCc1ccc(-c2cnc3c(c2)CCC(=O)N3)cc1 [Compound 156] |
| 50 |  | CC(C)n1ncc2c(C(=O)N[C@@H](C)c3ccccc3)cc(-c3cccc(CN(C)CCN)c3)nc21 [Compound 136] |
|  | 11.3 | CCS(=O)(=O)Nc1cc(-c2cccc(CN(C)CCNC)c2)nc2c1cnn2C(C)C [Compound 161] |
|  | 10.8 | CNC(=O)Nc1cc(-c2cccc(CN(C)CCN)c2)nc2c1cnn2C(C)C [Compound 126] |
|  | 11.9 | CNCCN(C)Cc1cccc(-c2cc(NS(=O)(=O)C(F)(F)F)c3cnn(C(C)C)c3n2)c1 [Compound 164] |
|  | 20 | CNCCN(C)Cc1cccc(-c2cnc3c(c2)c(Br)nn3CC2CCOCC2)c1 [Compound 39] |
|  | 3.05 | CNCCN(C)Cc1cccc(-c2ccc3cn(Cc4ccccc4)nc3n2)c1 [Compound 35] |
| 10.8 |  | Cc1c(C(=O)NCc2ccccc2)cc(-c2cccc(CN(C)CCN)c2)c2cn[nH]c12 [Compound 15] |
| 5.69 |  | COc1ccc(Cn2cnc3ccc(-c4ccc(CN(C)CCN)cc4)cc32)cc1 [Compound 16] |
|  | 8.46 | CN(CCN)Cc1cccc(-c2cc(C(=O)NC3CCOCC3)c3cnn(CC(F)(F)F)c3n2)c1 [Compound 144] |

| IC50 (PRMT5) [µM] | IC50 [1] [µM] | SMILES |
| --- | --- | --- |
| 35.9 |  | CC(C)n1ncc2c(C(=O)N[C@@H](C)c3ccccc3)cc(-c3cccc(CNCCN)c3)nc21 [Compound 160] |
|  | 2.77 | CN(CCN)Cc1cccc(-c2cc(C(=O)NC3CCOCC3)c3cnn(C4CC4)c3n2)c1 [Compound 142] |
|  | 7.37 | CNCCN(C)Cc1cccc(-c2cc(C(=O)NCC3CCOCC3)c3cnn(C4CCC4)c3n2)c1 [Compound 21] |
| 0.0799 |  | N#Cc1cccc(Cn2cnc3ccc(-c4ccc(CNCCN)cc4)cc32)c1 [Compound 145] |
|  | 11.5 | CNCCN(C)Cc1cccc(-c2cc(NC(=O)NC3CCOCC3)c3cnn(C(C)C)c3n2)c1 [Compound 133] |
| 50 |  | CC(C)n1ncc2c(C(=O)NCC3CCN(C)CC3)cc(-c3cccc(CN(C)CCN(C)C)c3)nc21 [Compound 162] |
|  | 13.5 | CN(CCN)Cc1cccc(-c2cc(C(=O)NC3CCOCC3)c3cnn(C)c3n2)c1 [Compound 158] |
|  | 0.387 | CNCCN(C)Cc1cccc(-c2nc(NC3CCOCC3)c3cnn(C(C)(C)C)c3n2)c1 [Compound 27, N1-(3-(1-tert-butyl-4-(tetrahydro-2H-pyran-4-ylamino)-1H-pyrazolo[3,4-d]pyrimidin-6-yl)benzyl)-N1,N2-dimethylethane-1,2-diamine] |
|  | 20 | CCC(=O)c1cc(-c2cccc(CN(C)CCNC)c2)nc2c1cnn2C(C)C [Compound 128] |
| 0.169 |  | COc1cccc(Cc2nc3ccc(-c4ccc(CNCCN)cc4)cc3n2C(C)C)c1 [Compound 135] |
| 0.858 |  | CC(C)n1ncc2c(C(=O)N(C)Cc3ccccc3)cc(-c3cccc(CN(C)CCN)c3)nc21 [Compound 31] |
|  | 2.15 | CNCCN(C)Cc1cccc(-c2cc(C(=O)NCC3CCOCC3)c3cnn(C4CC4)c3n2)c1 [Compound 26] |
|  | 20 | CNCCN(C)Cc1cccc(-c2cc(Oc3ccccc3)c3cnn(C(C)C)c3n2)c1 [Compound 45] |
| 34.7 |  | CN(CCN)Cc1ccc(-c2ccc3ncn(-c4ccccc4)c3c2)cc1 [Compound 19] |
|  | 7.74 | CNCCN(C)Cc1cccc(-c2cc(NC(=O)NC)c3cnn(C(C)C)c3n2)c1 [Compound 138] |
|  | 20 | CC(C)n1ncc2c(C(=O)NCc3ccccc3F)cc(-c3cccc(CNCCN)c3)nc21 [Compound 159] |
|  | 12.8 | CNCCN(C)Cc1cccc(-c2cnc3c(c2)OCC(=O)N3)c1 [Compound 355] |
|  | 0.442 | CN(CCN)Cc1cccc(-c2nc(NC3CCOCC3)c3cnn(C(C)(C)C)c3n2)c1 [Compound 18] |
| 23.9 |  | CC(C)n1ncc2c(C(=O)NCc3ccncc3)cc(-c3cccc(CNCCN)c3)nc21 [Compound 150] |
|  | 3.44 | CNCCN(C)Cc1cccc(-c2cc(NC3CC3)c3cnn(C(C)C)c3n2)c1 [Compound 11] |

| IC50 (PRMT5) [µM] | IC50 [1] [µM] | SMILES |
| --- | --- | --- |
| 0.0572 |  | COc1ccc(Cn2cnc3ccc(-c4ccc(CNCCN)cc4)cc32)cc1 [Compound 132] |
|  | 4.86 | CNCCN(C)Cc1cccc(-c2cc(NS(=O)(=O)N(C)C)c3cnn(C(C)C)c3n2)c1 [Compound 139] |
|  | 3.11 | Cc1nn(C(C)C)c2nc(-c3cccc(CN(C)CCN)c3)cc(N3CCOCC3)c12 [Compound 22, N1-(3-(1-isopropyl-3-methyl-4-morpholino-1H-pyrazolo[3,4-b]pyridin-6-yl)benzyl)-N1-methylethane-1,2-diamine] |
| 0.281 |  | Cc1cccc(CCn2cnc3ccc(-c4ccc(CNCCN)cc4)cc32)c1 [Compound 143] |
|  | 20 | CC(C)n1ncc2c(C(=O)NCc3ccccc3)cc(-c3cccc(CN(C)CCN)c3)cc21 [Compound 14] |
|  | 0.972 | CC(C)n1ncc2c(C(=O)NC3CCOCC3)cc(-c3cccc(CN(C)CCN)c3)nc21 [Compound 148] |
|  | 5.94 | CC(C)n1ncc2c(NC3CC3)cc(-c3cccc(CN(C)CCN)c3)nc21 [Compound 41] |
|  | 20 | CNCCN(C)Cc1cccc(-c2cc(N)c3cnn(C(C)C)c3n2)c1 [Compound 151] |
| 0.327 |  | Cc1cc2cc(-c3ccc(CNCCN)cc3)ccc2[nH]1 [Compound 141] |
|  | 11.5 | CNCCN(C)Cc1cc(-c2cc(C(=O)NC3CCOCC3)c3cnn(C(C)C)c3n2)ccc1F [Compound 130] |
| 0.122 |  | CS(=O)(=O)N1CCC(Cn2cnc3ccc(-c4ccc(CNCCN)cc4)cc32)CC1 [Compound 129] |
| 0.418 |  | NCCNCc1ccc(-c2ccc3ncn(C4CCNCC4)c3c2)cc1 [Compound 157] |
|  | 11.6 | CC(C)n1ncc2c(N3CCOCC3)cc(-c3cccc(CN(C)CCNC4CC4)c3)nc21 [Compound 163] |
| 11.6 |  | CC(C)n1ncc2c(C(=O)N3CCc4ccccc4C3)cc(-c3cccc(CN(C)CCN)c3)nc21 [Compound 23] |
|  | 3.33 | CNCCN(C)Cc1cccc(-c2cc(Nc3ncc(C)s3)c3cnn(C(C)C)c3n2)c1 [Compound 20] |
|  | 20 | CNCCN(C)Cc1cccc(-c2nc(NCc3cc(C)nn3C)c3cnn(C4CC4)c3n2)c1 [Compound 17] |
| 0.377 |  | COc1cccc(CNC(=O)c2cncc(-c3ccc(CNCCN)cc3)c2)c1 [Compound 356] |
| 0.404 |  | CC(C)n1cnc2ccc(-c3ccc(CNCCN)cc3)cc21 [Compound 166] |
| 0.849 |  | CNCCN(C)Cc1cccc(-c2cc(C(=O)N(C)Cc3ccccc3)c3cnn(C(C)C)c3n2)c1 [Compound 24] |
